Laboratory results published in PubChem BioAssay AID248 (DTP/NCI, 2004).
Several values for one entry are separate records, joined by “and”; a condition that tells them apart may be missing. Identical values can stand only once. Toxic doses and inconclusive results are not listed. Rule as the data show it: active = T/C of 150% or more; inactive = T/C below 125%.

Tested on: L1210 leukemia ip in BDF1 mice, survival T/C
Assay: NCI In Vivo Anticancer Drug Screen. Data for tumor model L1210 Leukemia (intraperitoneal) in B6D2F1 (BDF1) mice
Details: endpoint: mean survival time, higher = longer survival
Summary of the method: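 Survival endpoint. Drug-treated group vs vehicle group, expressed as T divided by C. Tumor passaged by transplantation.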

[1] = dose: 100.0 mg/kg/injection, schedule: Q04DX003 (ip), vehicle: saline with Tween-80
[2] = dose: 200.0 mg/kg/injection, schedule: Q04DX003 (ip), vehicle: saline with Tween-80
[3] = dose: 400.0 mg/kg/injection, schedule: Q04DX003 (ip), vehicle: saline with Tween-80
[4] = dose: 100.0 mg/kg/injection, schedule: Q04DX003 (ip), vehicle: other
[5] = dose: 200.0 mg/kg/injection, schedule: Q04DX003 (ip), vehicle: other
[6] = dose: 100.0 mg/kg/injection, schedule: Q04DX003 (ip), vehicle: Klucel (hydroxypropylcellulose) (HPC)
[7] = dose: 200.0 mg/kg/injection, schedule: Q04DX003 (ip), vehicle: Klucel (hydroxypropylcellulose) (HPC)
[8] = dose: 400.0 mg/kg/injection, schedule: Q04DX003 (ip), vehicle: Klucel (hydroxypropylcellulose) (HPC)
[9] = dose: 50.0 mg/kg/injection, schedule: Q01DX001 (ip), vehicle: carboxymethylcellulose (CMC)
[10] = dose: 100.0 mg/kg/injection, schedule: Q01DX001 (ip), vehicle: carboxymethylcellulose (CMC)
[11] = dose: 200.0 mg/kg/injection, schedule: Q01DX001 (ip), vehicle: carboxymethylcellulose (CMC)
[12] = dose: 400.0 mg/kg/injection, schedule: Q01DX001 (ip), vehicle: carboxymethylcellulose (CMC)
[13] = dose: 100.0 mg/kg/injection, schedule: Q01DX001 (ip), vehicle: saline with Tween-80
[14] = dose: 200.0 mg/kg/injection, schedule: Q01DX001 (ip), vehicle: saline with Tween-80
[15] = dose: 400.0 mg/kg/injection, schedule: Q01DX001 (ip), vehicle: saline with Tween-80
[16] = dose: 100.0 mg/kg/injection, schedule: Q04DX003 (ip), vehicle: saline
[17] = dose: 200.0 mg/kg/injection, schedule: Q04DX003 (ip), vehicle: saline
[18] = dose: 400.0 mg/kg/injection, schedule: Q04DX003 (ip), vehicle: saline
[19] = dose: 100.0 mg/kg/injection, schedule: Q01DX001 (ip), vehicle: Klucel (hydroxypropylcellulose) (HPC)
[20] = dose: 200.0 mg/kg/injection, schedule: Q01DX001 (ip), vehicle: Klucel (hydroxypropylcellulose) (HPC)
[21] = dose: 400.0 mg/kg/injection, schedule: Q01DX001 (ip), vehicle: Klucel (hydroxypropylcellulose) (HPC)

Measured: T/C

CCCOC(=O)Nc1cccc(OC(=O)NC)c1
inactive: [1] 105 % of control | [2] 94 % of control | [3] 96 % of control

CN(C)C(=O)Nc1nc2ccccc2s1
inactive: dose: 100.0 mg/kg/injection, schedule: Q04DX002 (ip), vehicle: other 88 % of control and 92 % of control | [4] 96 % of control and 120 % of control | dose: 200.0 mg/kg/injection, schedule: Q04DX002 (ip), vehicle: other 97 % of control and 100 % of control | [5] 99 % of control and 105 % of control | dose: 400.0 mg/kg/injection, schedule: Q04DX002 (ip), vehicle: other 95 % of control and 103 % of control

CCOC(=O)CSc1ccc2ccccc2[n+]1-c1ccccc1
inactive: dose: 100.0 mg/kg/injection, schedule: Q01DX001 (ip), vehicle: saline 99 % of control | dose: 200.0 mg/kg/injection, schedule: Q01DX001 (ip), vehicle: saline 94 % of control

CCN(CC)CC[n+]1ccccc1
inactive: dose: 100.0 mg/kg/injection, schedule: Q04DX002 (ip), vehicle: saline 93 % of control | dose: 200.0 mg/kg/injection, schedule: Q04DX002 (ip), vehicle: saline 100 % of control

O=C1NC2(CCc3ccccc32)C(=O)O1 (configuration not stated)
inactive: [6] 110 % of control | [7] 100 % of control | [8] 98 % of control

CCOC(=O)c1cnc(SC)nc1Nc1cccc(OC)c1
inactive: [6] 108 % of control | [7] 110 % of control | [8] 101 % of control

CN1CCC(=C2c3ccccc3C(O)c3ccccc32)CC1 (configuration not stated)
inactive: dose: 3.12 mg/kg/injection, schedule: Q01DX009 (ip), vehicle: Klucel (hydroxypropylcellulose) (HPC) 98 % of control | dose: 6.25 mg/kg/injection, schedule: Q01DX009 (ip), vehicle: Klucel (hydroxypropylcellulose) (HPC) 96 % of control | dose: 12.5 mg/kg/injection, schedule: Q01DX009 (ip), vehicle: Klucel (hydroxypropylcellulose) (HPC) 93 % of control | dose: 25.0 mg/kg/injection, schedule: Q04DX003 (ip), vehicle: Klucel (hydroxypropylcellulose) (HPC) 98 % of control | dose: 50.0 mg/kg/injection, schedule: Q01DX009 (ip), vehicle: Klucel (hydroxypropylcellulose) (HPC) 93 % of control | dose: 50.0 mg/kg/injection, schedule: Q04DX003 (ip), vehicle: Klucel (hydroxypropylcellulose) (HPC) 98 % of control

Cc1cc(-n2cnc3c(Cl)ncnc32)ccc1[N+](=O)[O-]
inactive: [9] 110 % of control | [10] 101 % of control | [11] 98 % of control | [12] 112 % of control

OCCN1CCC(CCCC2CCN(CCO)CC2)CC1
inactive: dose: 10.0 mg/kg/injection, schedule: Q01DX Z (ip), vehicle: saline 94 % of control | dose: 30.0 mg/kg/injection, schedule: Q01DX Z (ip), vehicle: saline 92 % of control | dose: 100.0 mg/kg/injection, schedule: Q01DX Z (ip), vehicle: saline 94 % of control

CC(=O)OC12CCC34CCC5(CCC(OC(C)=O)(O1)C5C32)O4 (configuration not stated)
inactive: [13] 105 % of control | [14] 98 % of control | [15] 98 % of control

Cc1cccc(NC(=S)N(CCC#N)C2CCCCC2)c1
inactive: [10] 95 % of control | [11] 90 % of control | [12] 101 % of control

COc1ccc(-c2c([N+](=O)[O-])ccc(Cl)c2[N+](=O)[O-])cc1
inactive: [9] 94 % of control | [10] 117 % of control | [11] 107 % of control | [12] 102 % of control

COc1ccc(C(O)c2cc(-c3ccncc3)c(C(O)c3ccc(OC)cc3)nn2)cc1 (configuration not stated)
inactive: dose: 100.0 mg/kg/injection, schedule: Q04DX003 (ip), vehicle: gum acacia 94 % of control | dose: 200.0 mg/kg/injection, schedule: Q04DX003 (ip), vehicle: gum acacia 96 % of control | dose: 400.0 mg/kg/injection, schedule: Q04DX003 (ip), vehicle: gum acacia 88 % of control

CC(=O)NC(NNC(NC(C)=O)(c1ccccc1)c1ccccc1)(c1ccccc1)c1ccccc1
inactive: [16] 105 % of control | [17] 102 % of control | [18] 92 % of control

COC(=O)c1ccc(=O)n(C/C=C(\C)CCC(=O)O)c1
inactive: dose: 100.0 mg/kg/injection, schedule: Q01DX009 (ip), vehicle: water 96 % of control | [4] 93 % of control | dose: 200.0 mg/kg/injection, schedule: Q01DX009 (ip), vehicle: water 102 % of control | [5] 93 % of control | dose: 400.0 mg/kg/injection, schedule: Q01DX009 (ip), vehicle: water 98 % of control | dose: 400.0 mg/kg/injection, schedule: Q04DX003 (ip), vehicle: other 91 % of control

CCCCN=C=S
inactive: dose: 100.0 mg/kg/injection, schedule: Q04DX002 (ip), vehicle: saline with Tween-80 104 % of control | dose: 200.0 mg/kg/injection, schedule: Q04DX002 (ip), vehicle: saline with Tween-80 91 % of control

COC(=O)CC(=O)c1ccc2ccccc2n1
inactive: [9] 108 % of control | [10] 100 % of control | [11] 97 % of control | [12] 105 % of control

CCOC(=O)C1NC(=O)C(C(=O)OCC)C1C(C)C (configuration not stated)
inactive: dose: 75.0 mg/kg/injection, schedule: Q04DX003 (ip), vehicle: Klucel (hydroxypropylcellulose) (HPC) 102 % of control | [19] 103 % of control | dose: 150.0 mg/kg/injection, schedule: Q04DX003 (ip), vehicle: Klucel (hydroxypropylcellulose) (HPC) 98 % of control | [20] 103 % of control | dose: 300.0 mg/kg/injection, schedule: Q04DX003 (ip), vehicle: Klucel (hydroxypropylcellulose) (HPC) 100 % of control | [21] 109 % of control

CC(C)=NNC(=O)COCC(=O)NN=C(C)C
inactive: dose: 100.0 mg/kg/injection, schedule: Q01DX009 (ip), vehicle: Klucel (hydroxypropylcellulose) (HPC) 97 % of control | dose: 200.0 mg/kg/injection, schedule: Q01DX009 (ip), vehicle: Klucel (hydroxypropylcellulose) (HPC) 112 % of control | dose: 400.0 mg/kg/injection, schedule: Q01DX009 (ip), vehicle: Klucel (hydroxypropylcellulose) (HPC) 109 % of control

CCC(CN)(c1ccccc1)c1ccccc1
inactive: dose: 50.0 mg/kg/injection, schedule: Q01DX001 (ip), vehicle: other 96 % of control | dose: 100.0 mg/kg/injection, schedule: Q01DX001 (ip), vehicle: other 104 % of control | dose: 200.0 mg/kg/injection, schedule: Q01DX001 (ip), vehicle: other 102 % of control | dose: 400.0 mg/kg/injection, schedule: Q01DX001 (ip), vehicle: other 96 % of control

CCc1cc(C(C)(C)C)c(O)c(C(C)(C)C)c1
inactive: [13] 95 % of control | [14] 102 % of control | [15] 95 % of control

CN1CCN(/N=N/N2CCN(C)CC2)CC1
inactive: [19] 105 % of control | [20] 101 % of control | [21] 100 % of control

O=c1ccc([N+](=O)[O-])c[nH]1
inactive: dose: 100.0 mg/kg/injection, schedule: Q01DX009 (ip), vehicle: saline 97 % of control and 93 % of control | [16] 105 % of control | dose: 200.0 mg/kg/injection, schedule: Q01DX009 (ip), vehicle: saline 101 % of control and 100 % of control | [17] 96 % of control and 103 % of control | dose: 400.0 mg/kg/injection, schedule: Q01DX009 (ip), vehicle: saline 105 % of control and 95 % of control | [18] 94 % of control and 96 % of control

CSc1n[nH]c(/N=N/N(C)C)c1C(N)=O
inactive: [6] 99 % of control | [7] 103 % of control | [8] 111 % of control

O=C(N/N=C\c1ccc2c(c1)OCO2)N/N=C/c1ccc2c(c1)OCO2
inactive: [6] 97 % of control | [7] 100 % of control | [8] 97 % of control

O=c1ccc2c(c1)oc1cccc3c(=O)c4ccccc4c2c13
inactive: dose: 50.0 mg/kg/injection, schedule: Q01DX009 (ip), vehicle: saline with Tween-80 97 % of control | dose: 100.0 mg/kg/injection, schedule: Q01DX009 (ip), vehicle: saline with Tween-80 101 % of control

O=C(O)C(Cc1ccccc1)N1C(=O)C2C3CCC(C3)C2C1=O (configuration not stated)
inactive: dose: 25.0 mg/kg/injection, schedule: Q04DX003 (ip), vehicle: saline with Tween-80 93 % of control | dose: 50.0 mg/kg/injection, schedule: Q04DX003 (ip), vehicle: saline with Tween-80 93 % of control | [1] 100 % of control and 107 % of control | [2] 110 % of control | [3] 103 % of control
